In PubChem BioAssay (NCI):
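These data come from cells grown in 96-well plates and exposed to compound for 48 hours at five concentrations. At the TGI there is no net growth.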

What was measured:
Assay in all cases: growth of human tumour cells (NCI), 48 h
[1] = test system: SN12C renal
[2] = test system: SF-268 CNS
[3] = test system: CCRF-CEM leukemia
[4] = test system: NCI-H226 lung
[5] = test system: UACC-257 melanoma
[6] = test system: NCI-H522 lung
[7] = test system: MCF7 breast
[8] = test system: ACHN renal
[9] = test system: U251 CNS
[10] = test system: HT29 colon
[11] = test system: SF-295 CNS
[12] = test system: SNB-19 CNS
[13] = test system: MDA-N
[14] = test system: HCC-2998 colon

`COc1ccc(N2C(=O)C3ON(C(C(N)=O)c4ccccc4)C(c4ccc(-c5ccccc5)cc4)C3C2=O)cc1` (configuration not stated) gave a TGI [1] of over 50 µM, a TGI [2] of over 50 µM and a TGI [3] of over 50 µM. It also gave a TGI [4] of over 50 µM, a TGI [5] of over 50 µM and a TGI [6] of over 50 µM. It also gave a TGI [7] of over 50 µM, a TGI [8] of over 50 µM and a TGI [9] of over 50 µM. It also gave a TGI [10] of over 50 µM, a TGI [11] of over 50 µM and a TGI [12] of over 50 µM.
With `O=c1oc2ccccc2c(O)c1C(c1ccco1)c1c(O)c2ccccc2oc1=O` the TGI [1] was 63.1 µM, the TGI [2] was 79.8 µM and the TGI [3] was 73.8 µM. For the same compound, the TGI [4] was over 100 µM, the TGI [5] was 63.4 µM and the TGI [6] was 41.8 µM. It also gave a TGI [13] of 44.9 µM, a TGI [8] of 55.8 µM and a TGI [9] of 61.8 µM. It also gave a TGI [10] of over 100 µM, a TGI [14] of 55.1 µM and a TGI [12] of over 100 µM.
`CCCCc1c2c(nc3c1CCCC3O)/C(=C/c1ccccc1)CCC2` (configuration not stated) gave a TGI [1] of 62.5 µM, a TGI [2] of 85.3 µM and a TGI [3] of 43.9 µM. It also gave a TGI [4] of 68 µM, a TGI [5] of 96.6 µM and a TGI [6] of 52.5 µM. The TGI [8] was over 100 µM, the TGI [9] was 64.1 µM and the TGI [10] was 46.1 µM. The TGI [14] was 24.3 µM, the TGI [11] was over 100 µM and the TGI [12] was over 100 µM.
For `O=[N+]([O-])c1cccc2nc3ccccc3c(NCCc3cccc[n+]3[O-])c12`, the TGI [1] was 0.28 µM, the TGI [2] was 0.202 µM and the TGI [4] was 0.562 µM. The TGI [5] was 0.0647 µM, the TGI [6] was 0.157 µM and the TGI [13] was 0.0464 µM. It also gave a TGI [7] of 0.276 µM, a TGI [8] of 0.039 µM and a TGI [9] of 0.145 µM. It also gave a TGI [10] of 0.0628 µM, a TGI [14] of under 0.01 µM and a TGI [11] of 0.266 µM. The TGI [12] was 1.62 µM.
Work on `COc1cccc(NC(=S)Nn2c(C)nc3ccccc3c2=O)c1` yielded a TGI [1] of over 100 µM, a TGI [2] of over 100 µM and a TGI [3] of over 100 µM. It also gave a TGI [4] of over 100 µM, a TGI [5] of over 100 µM and a TGI [6] of over 100 µM. It also gave a TGI [8] of over 100 µM, a TGI [9] of over 100 µM and a TGI [10] of over 100 µM. For the same compound, the TGI [11] was over 100 µM.
Compound `COC(=O)C(O)P(=O)(OC)OC` (configuration not stated) has a TGI [1] of over 100 µM, a TGI [2] of over 100 µM and a TGI [4] of over 100 µM. For the same compound, the TGI [5] was over 100 µM, the TGI [6] was over 100 µM and the TGI [13] was over 100 µM. It also gave a TGI [7] of over 100 µM, a TGI [8] of over 100 µM and a TGI [9] of over 100 µM. For the same compound, the TGI [10] was over 100 µM, the TGI [11] was over 100 µM and the TGI [12] was over 100 µM.
With `Cn1c(=O)cc(NCc2ccc(Cl)cc2)[nH]c1=O` the TGI [1] was over 100 µM, the TGI [2] was 69.1 µM and the TGI [4] was over 100 µM. It also gave a TGI [5] of over 100 µM, a TGI [6] of over 100 µM and a TGI [13] of over 100 µM. For the same compound, the TGI [7] was over 100 µM, the TGI [8] was over 100 µM and the TGI [9] was over 100 µM. For the same compound, the TGI [10] was over 100 µM, the TGI [14] was over 100 µM and the TGI [11] was over 100 µM. For the same compound, the TGI [12] was over 100 µM.
`O=c1[nH]c(=O)n(C2CC(O)C(CO)O2)cc1OCCCc1ccccc1` (configuration not stated) was tested, and the TGI [1] was over 100 µM, the TGI [2] was over 100 µM and the TGI [3] was over 100 µM. It also gave a TGI [4] of over 100 µM, a TGI [5] of over 100 µM and a TGI [6] of over 100 µM. The TGI [13] was over 100 µM, the TGI [7] was over 100 µM and the TGI [8] was over 100 µM. The TGI [9] was over 100 µM, the TGI [10] was over 100 µM and the TGI [11] was over 100 µM. It also gave a TGI [12] of over 100 µM.
For `CCOC(=O)c1c(C)c2c(n1C)CCc1cn[nH]c1-2`, the TGI [1] was over 100 µM, the TGI [2] was over 100 µM and the TGI [3] was over 100 µM. The TGI [4] was over 100 µM, the TGI [5] was over 100 µM and the TGI [6] was over 100 µM. For the same compound, the TGI [7] was over 100 µM, the TGI [9] was over 100 µM and the TGI [10] was over 100 µM. It also gave a TGI [14] of over 100 µM, a TGI [11] of over 100 µM and a TGI [12] of over 100 µM.
With `COC(OC)c1cccc2c1C(=O)CCC1(O)c3ccccc3C1C2` (configuration not stated) the TGI [1] was over 100 µM, the TGI [2] was over 100 µM and the TGI [3] was over 100 µM. The TGI [4] was over 100 µM, the TGI [5] was over 100 µM and the TGI [6] was over 100 µM. It also gave a TGI [10] of over 100 µM, a TGI [14] of over 100 µM and a TGI [11] of over 100 µM. It also gave a TGI [12] of over 100 µM.
`COc1ccc(C2C3C(=O)C=CC(=O)C3[C@@H]2C)cc1OC` (some centres not stated) gave a TGI [2] of over 100 µM, a TGI [4] of over 100 µM and a TGI [5] of over 100 µM. For the same compound, the TGI [6] was 33.4 µM, the TGI [8] was over 100 µM and the TGI [9] was over 100 µM. For the same compound, the TGI [10] was over 100 µM, the TGI [14] was over 100 µM and the TGI [11] was over 100 µM. For the same compound, the TGI [12] was over 100 µM.
`CC(OC(=O)NCn1cc(-c2ccccc2)nn1)c1ccccc1` (configuration not stated) showed a TGI [1] of over 100 µM, a TGI [3] of over 100 µM and a TGI [4] of 56.4 µM. The TGI [5] was over 100 µM, the TGI [6] was over 100 µM and the TGI [7] was over 100 µM. It also gave a TGI [8] of over 100 µM, a TGI [9] of over 100 µM and a TGI [10] of over 100 µM. It also gave a TGI [14] of over 100 µM, a TGI [11] of over 100 µM and a TGI [12] of over 100 µM.
With `CCCC/C=C/C1Cc2ccccc2CN1S(=O)(=O)c1ccc(C)cc1` (configuration not stated) the TGI [1] was 23 µM, the TGI [2] was 30 µM and the TGI [3] was 42.3 µM. The TGI [4] was 25.8 µM, the TGI [5] was 17.9 µM and the TGI [6] was 20.2 µM. The TGI [8] was 22.5 µM, the TGI [9] was 39.3 µM and the TGI [10] was 21.7 µM. The TGI [14] was 25.3 µM, the TGI [11] was 35.6 µM and the TGI [12] was over 100 µM.
In the case of `Cc1cccc2c1Oc1ccccc1C2NC(=O)c1ccc([N+](=O)[O-])cc1` (configuration not stated), the TGI [1] is reported as 91 µM, the TGI [2] is reported as over 100 µM and the TGI [3] is reported as over 100 µM. The TGI [4] was 63.9 µM, the TGI [5] was over 100 µM and the TGI [6] was over 100 µM. The TGI [13] was over 100 µM, the TGI [8] was over 100 µM and the TGI [9] was over 100 µM. It also gave a TGI [10] of over 100 µM, a TGI [11] of over 100 µM and a TGI [12] of over 100 µM.
`CC1(C)CC(=O)C2=C(C1)c1c(ccc3ccccc13)NC2c1cn(Cc2ccc(Cl)cc2)c2ccccc12` (configuration not stated) was tested, and the TGI [1] was over 100 µM, the TGI [2] was over 100 µM and the TGI [3] was over 100 µM. The TGI [5] was over 100 µM, the TGI [6] was over 100 µM and the TGI [13] was over 100 µM. It also gave a TGI [7] of over 100 µM, a TGI [8] of over 100 µM and a TGI [9] of over 100 µM. For the same compound, the TGI [10] was over 100 µM, the TGI [11] was over 100 µM and the TGI [12] was over 100 µM.
`CCCc1c(OC)c(=O)c2c(OC)cc(OC)c3c4c(OC)cc(OC)c5c(=O)c(OC)c(CCC)c(c1c23)c54` showed a TGI [1] of 50.4 µM, a TGI [2] of 41.5 µM and a TGI [4] of 38.9 µM. It also gave a TGI [5] of 46.6 µM, a TGI [13] of 32.9 µM and a TGI [7] of 46.6 µM. For the same compound, the TGI [8] was 29.3 µM, the TGI [9] was 29.6 µM and the TGI [10] was 24.1 µM. It also gave a TGI [14] of 38.7 µM, a TGI [11] of 33.1 µM and a TGI [12] of 34.6 µM.
For `CC(=O)OCC1OC(n2c3c(c(-c4ccco4)c(C#N)c2=S)CCC3)C(OC(C)=O)C(OC(C)=O)C1OC(C)=O` (configuration not stated), the TGI [1] was over 100 µM, the TGI [2] was over 100 µM and the TGI [5] was over 100 µM. It also gave a TGI [13] of over 100 µM, a TGI [7] of over 100 µM and a TGI [8] of over 100 µM. For the same compound, the TGI [9] was over 100 µM, the TGI [10] was over 100 µM and the TGI [14] was over 100 µM. The TGI [11] was over 100 µM and the TGI [12] was over 100 µM.
With `COc1cc(C2C(Cl)C(=O)N2NC(=O)c2ccccc2O)ccc1O` (configuration not stated) the TGI [1] was over 100 µM, the TGI [2] was over 100 µM and the TGI [3] was over 100 µM. For the same compound, the TGI [4] was over 100 µM, the TGI [5] was over 100 µM and the TGI [6] was over 100 µM. It also gave a TGI [8] of over 100 µM, a TGI [9] of over 100 µM and a TGI [10] of over 100 µM. The TGI [14] was over 100 µM, the TGI [11] was over 100 µM and the TGI [12] was over 100 µM.
